Earlier results, collected in patent US20220409609A1, “INJECTABLE FORMULATION OF HYDROXYCHLOROQUINE” (Luckwel Pharmaceuticals Inc., priority 2021, published 2022).
Counter-ions that a name gives are not always drawn.

What was measured:
[1] = water at 25° C.

For `CCN(CCO)CCCC(C)Nc1ccnc2cc(Cl)ccc12` (racemic) [Hydroxychloroquine sulfate, 2-[[4-[(7-Chloro-4-quinolyl)amino]pentyl]ethylamino] ethanol sulfate (1:1)], the “time at which hydroxychloroquine concentrations peak after dosing” value is given as 3 to 4 h and the solubility in water [1] is given as “freely soluble”.
